Measurements published in PubChem BioAssay AID1259411 (Chemical Carcinogenesis Research Information System (CCRIS), 2018).
Calls of active or inactive are those of the source. The rule behind the calls is not given here.

Test system: rodent carcinogenicity bioassays, tumor incidence
Assay: CCRIS carcinogenicity studies
Procedure, shortened: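 NCI-built, expert-reviewed records of carcinogenicity and related test outcomes (mutagenicity, tumor promotion/inhibition) compiled from published and report sources, historical span 1985-2011, not updated.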

Compound: CCC(=O)O[C@H]1CC[C@H]2[C@@H]3CCC4=CC(=O)CC[C@]4(C)[C@H]3CC[C@]12C
- carcinogen call (Species: MOUSE, Route: SUBCUTANEOUS IMPLANT, Tumor Site: Type of Lesion: CERVIX, UTERUS): active; positive
- carcinogen call (Species: RAT, Route: SUBCUTANEOUS IMPLANT, Tumor Site: Type of Lesion: PROSTATE GLAND): active; positive

Compound: CS(=O)(=O)c1ccc([C@@H](O)[C@@H](CO)NC(=O)C(Cl)Cl)cc1
- carcinogen call (Species: RAT, Strain/Sex: F344/FEMALE, Route: ORAL, Dose: 0, 125, 250 PPM IN DRINKING WATER FOR 104 WK (STUDY DURATION: 108 WK), Dose: 0, 125, 250 PPM IN DRINKING WATER FOR 104 WK (STUDY DURATION: 108 WK)): inactive; negative
- carcinogen call (Species: RAT, Strain/Sex: F344/MALE, Route: ORAL, Dose: 0, 125, 250 PPM IN DRINKING WATER FOR 104 WK (STUDY DURATION: 108 WK), Dose: 0, 125, 250 PPM IN DRINKING WATER FOR 104 WK (STUDY DURATION: 108 WK)): inactive; negative

Compound: BrCCBr
- carcinogen call (Species: FISH, Strain/Sex: JAPANESE MEDAKA/MALE,FEMALE, Route: IMMERSION, Dose: 0, 0.133, 6.2, 18.58 MG/L IN WATER FOR UP TO 97 D (STUDY DURATION: 58 WK), Dose: 0, 0.133, 6.2, 18.58 MG/L IN WATER FOR UP TO 97 D (STUDY DURATION: 58 WK), Tumor Site: Type of Lesion: LIVER: HEPATOCELLULAR ADENOMA, HEPATOCELLULAR CARCINOMA, CHOLANGIOMA, CHOLANGIOCELLULAR CARCINOMA, GALL BLADDER: TUMOR): active; positive
- carcinogen call (Species: FISH, Strain/Sex: SHASTA RAINBOW TROUT/MALE, FEMALE, Route: ORAL, Dose: 0, 2000 PPM IN DIET FOR 18 MO (STUDY DURATION: 18 MO), Tumor Site: Type of Lesion: STOMACH: PAPILLOMA): active; positive
- carcinogen call (Species: MOUSE, Strain/Sex: B6C3F1/FEMALE, Route: GAVAGE, Dose: 0, 62, 107 MG/KG, TWA IN CORN OIL (STUDY DURATION: 78-90 WK), Dose: 0, 62, 107 MG/KG, TWA IN CORN OIL (STUDY DURATION: 78-90 WK), Tumor Site: Type of Lesion: LUNG: ALVEOLAR/BRONCHIOLAR ADENOMA, CARCINOMA, STOMACH: SQUAMOUS CELL CARCINOMA): active; positive
- carcinogen call (Species: MOUSE, Strain/Sex: B6C3F1/FEMALE, Route: INHALATION, Dose: 0, 10, 40 PPM 6 HR/D, 5 D/WK FOR 90-103 WK (STUDY DURATION: 91-104 WK), Dose: 0, 10, 40 PPM 6 HR/D, 5 D/WK FOR 90-103 WK (STUDY DURATION: 91-104 WK), Tumor Site: Type of Lesion: INTEGUMENTARY SYSTEM (SUBCUTANEOUS TISSUE OR RIB): FIBROSARCOMA, NASAL CAVITY: CARCINOMA (NOS), CARCINOMA (NOS) OR ADENO): active; positive
- carcinogen call (Species: MOUSE, Strain/Sex: B6C3F1/FEMALE, Route: INHALATION, Dose: 0, 10, 40 PPM 6 HR/D, 5 D/WK FOR 90-103 WK (STUDY DURATION: 91-104 WK), Dose: 0, 10, 40 PPM 6 HR/D, 5 D/WK FOR 90-103 WK (STUDY DURATION: 91-104 WK), Tumor Site: Type of Lesion: NASAL CAVITY: SQUAMOUS CELL PAPILLOMA, CARCINOMA): active; positive
- carcinogen call (Species: MOUSE, Strain/Sex: B6C3F1/MALE, Route: GAVAGE, Dose: 0, 62, 107 MG/KG, TWA IN CORN OIL (STUDY DURATION: 77-78 WK), Dose: 0, 62, 107 MG/KG, TWA IN CORN OIL (STUDY DURATION: 77-78 WK), Tumor Site: Type of Lesion: LUNG: ALVEOLAR/BRONCHIOLAR ADENOMA, STOMACH: SQUAMOUS CELL PAPILLOMA, SQUAMOUS CELL CARCINOMA): active; positive
- carcinogen call (Species: MOUSE, Strain/Sex: B6C3F1/MALE, Route: INHALATION, Dose: 0, 10, 40 PPM 6 HR/D, 5 D/WK FOR 78 WK (STUDY DURATION: 79 WK), Dose: 0, 10, 40 PPM 6 HR/D, 5 D/WK FOR 78 WK (STUDY DURATION: 79 WK), Tumor Site: Type of Lesion: LUNG: ALVEOLAR/BRONCHIOLAR ADENOMA, ALVEOLAR/BRONCHIOLAR CARCINOMA): active; positive
- carcinogen call (Species: MOUSE, Strain/Sex: B6C3F1/MALE, Route: INHALATION, Dose: 0, 10, 40 PPM 6 HR/D, 5 D/WK FOR 90-103 WK (STUDY DURATION: 91-104 WK), Dose: 0, 10, 40 PPM 6 HR/D, 5 D/WK FOR 90-103 WK (STUDY DURATION: 91-104 WK), Tumor Site: Type of Lesion: NASAL CAVITY: SQUAMOUS CELL PAPILLOMA): active; positive
- carcinogen call (Species: RAT, Strain/Sex: F344/FEMALE, Route: INHALATION, Dose: 0, 10, 40 PPM 6 HR/D, 5 D/WK FOR 91-103 WK (STUDY DURATION: 92-104 WK), Dose: 0, 10, 40 PPM 6 HR/D, 5 D/WK FOR 91-103 WK (STUDY DURATION: 92-104 WK), Tumor Site: Type of Lesion: NASAL CAVITY: ADENOMA (NOS), CARCINOMA (NOS), ADENOCARCINOMA (NOS);LUNG: ALVEOLAR/BRONCHIOLAR ADENOMA OR CARCINOMA;SPLEE): active; positive
- carcinogen call (Species: RAT, Strain/Sex: F344/MALE, Route: INHALATION, Dose: 0, 10, 40 PPM 6 HR/D, 5 D/WK FOR 88-103 WK (STUDY DURATION: 89-104 WK), Dose: 0, 10, 40 PPM 6 HR/D, 5 D/WK FOR 88-103 WK (STUDY DURATION: 89-104 WK), Tumor Site: Type of Lesion: NASAL CAVITY: ADENOMA (NOS), ADENOCARCINOMA (NOS), CARCINOMA (NOS), ADENOMATOUS POLYP (NOS), CIRCULATORY SYSTEM: HEMANGI): active; positive
- carcinogen call (Species: RAT, Strain/Sex: OSBORNE-MENDEL/FEMALE, Route: GAVAGE, Dose: 0, 37, 39 MG/KG, TWA IN CORN OIL (STUDY DURATION: 61 WK), Dose: 0, 37, 39 MG/KG, TWA IN CORN OIL (STUDY DURATION: 61 WK), Tumor Site: Type of Lesion: STOMACH: SQUAMOUS CELL CARCINOMA, LIVER: HEPATOCELLULAR CARCINOMA, NEOPLASTIC NODULE): active; positive
- carcinogen call (Species: RAT, Strain/Sex: OSBORNE-MENDEL/MALE, Route: GAVAGE, Dose: 0, 38, 41 MG/KG, TWA IN CORN OIL (STUDY DURATION: 49 WK), Dose: 0, 38, 41 MG/KG, TWA IN CORN OIL (STUDY DURATION: 49 WK), Tumor Site: Type of Lesion: BLOOD VESSELS: HEMANGIOSARCOMA, STOMACH: SQUAMOUS CELL CARCINOMA): active; positive
- carcinogen call (Species: RAT, Strain/Sex: SPRAGUE-DAWLEY/FEMALE, Route: INHALATION, Dose: 20 PPM 7 HR/D, 5 D/WK FOR 18 MO, Tumor Site: Type of Lesion: SPLEEN: HEMANGIOSARCOMA, ADRENAL GLAND: PHEOCHROMOCYTOMA, CORTICAL ADENOMA, CARCINOMA, MAMMARY GLAND: ADENOMA, FIBROADEN, Tumor Site: Type of Lesion: SPLEEN: HEMANGIOSARCOMA, ADRENAL GLAND: PHEOCHROMOCYTOMA, CORTICAL ADENOMA, CARCINOMA, MAMMARY GLAND: ADENOMA, FIBROADEN): active; positive
- carcinogen call (Species: RAT, Strain/Sex: SPRAGUE-DAWLEY/MALE, Route: INHALATION, Dose: 20 PPM 7 HR/D, 5 D/WK FOR 18 MO, Tumor Site: Type of Lesion: SPLEEN: HEMANGIOSARCOMA, ADRENAL GLAND: PHEOCHROMOCYTOMA, CORTICAL ADENOMA, CARCINOMA, INTEGUMENTARY SYSTEM (SUBCUTANEOU, Tumor Site: Type of Lesion: SPLEEN: HEMANGIOSARCOMA, ADRENAL GLAND: PHEOCHROMOCYTOMA, CORTICAL ADENOMA, CARCINOMA, INTEGUMENTARY SYSTEM (SUBCUTANEOU): active; positive

Compound: CC(C)CCC[C@@H](C)[C@H]1CC[C@H]2[C@@H]3C[C@@H]4O[C@@]45C[C@@H](O)CC[C@]5(C)[C@H]3CC[C@]12C
- carcinogen call (Species: RAT, Strain/Sex: STRAIN-CD/FEMALE, Route: INJECTION, Dose: 0, 12.3 UMOL (TOTAL DOSE) 1/6 INJECTED UNDER EACH OF 3 THORACIC AND 3 INGUINAL NIPPLES ONCE (STUDY DURATION: 44 WK)): inactive; negative

Compound: CCc1cc(Cc2cc(CC)cc(C(C)(C)C)c2O)c(O)c(C(C)(C)C)c1
- carcinogen call (Species: RAT, Strain/Sex: WISTAR/MALE, Route: ORAL, Dose: 0, 0.03, 0.1, 0.3% IN DIET FOR DURATION OF STUDY (STUDY DURATION: 18 MO), Dose: 0, 0.03, 0.1, 0.3% IN DIET FOR DURATION OF STUDY (STUDY DURATION: 18 MO)): inactive; negative

Compound: CC1CC2OC2CC1COC(=O)C1CC2OC2CC1C (centres undefined)
- carcinogen call (Species: MOUSE, Route: DERMAL, Tumor Site: Type of Lesion: INTEGUMENTARY SYSTEM (SKIN)): active; positive

Compound: Nc1ccc(NCCO)c([N+](=O)[O-])c1
- carcinogen call (Species: MOUSE, Strain/Sex: B6C3F1/MALE, Route: GAVAGE, Dose: 0, 125, 250 MG/KG IN CORN OIL 5 D/WK FOR 104 WK (STUDY DURATION: 105 WK), Dose: 0, 125, 250 MG/KG IN CORN OIL 5 D/WK FOR 104 WK (STUDY DURATION: 105 WK), Tumor Site: Type of Lesion: LIVER: HEPATOCELLULAR ADENOMA OR CARCINOMA): equivocal
- carcinogen call (Species: RAT, Strain/Sex: F344/FEMALE, Route: GAVAGE, Dose: 0, 250, 500 MG/KG IN CORN OIL 5 D/WK FOR 105 WK (STUDY DURATION: 105 WK), Dose: 0, 250, 500 MG/KG IN CORN OIL 5 D/WK FOR 105 WK (STUDY DURATION: 105 WK)): inactive; negative
- carcinogen call (Species: RAT, Strain/Sex: F344/MALE, Route: GAVAGE, Dose: 0, 250, 500 MG/KG IN CORN OIL 5 D/WK FOR 105 WK (STUDY DURATION: 105 WK), Dose: 0, 250, 500 MG/KG IN CORN OIL 5 D/WK FOR 105 WK (STUDY DURATION: 105 WK)): inactive; negative
